# Measured values published in article PMC3853718 (Journal of Translational Medicine, 2013).
# Like-named read-outs stand apart in the source and are kept apart here. Marks after values point to notes of the source that are not given here.
# Tests used:
# [1] = test system: myeloma and NSCLC mouse xenograft models; details: at a dose 33% of the MAD; cited from earlier work
# nude mice = details: once-daily administration for 7 days in nude mice; cited from earlier work
# patients = details: higher doses (up to 57 mg/m^2), once-every-21-days dosing schedule; cited from earlier work
# [2] = Plasma pharmacokinetics after 2-hour IV infusion (LC-MS/MS); details: for AUC(0-inf): read-out: AUC(I) Mean; for AUC(0-t): read-out: AUC(tf) Mean
# solid tumors = assay: Tumor response by CT or MRI and RECIST; format: in vivo, human
smiles,measurement,setting,value
CCc1cnn2c(NCc3ccc[n+]([O-])c3)cc(N3CCCC[C@H]3CCO)nc12 [dinaciclib],tumor response in xenograft models,[1],complete tumor regression
same,"maximum tolerated dose, defined as the dose associated with 20% weight loss",nude mice,60 mg/kg
same,DLT,patients,Neutropenia
same,CL dependence on dose,[2]; 0.33 to 14 mg/m^2,dose independent
same,time at which Cmax was observed after the initiation of the infusion,[2]; 2-hour IV administration,approximately 2 hours
same,CL Mean,"[2]; Day 1, 0.33 mg/m^2, N 1",12.4 L/hr/m^2
same,Vd Mean,"[2]; Day 1, 0.33 mg/m^2, N 1",35.9 L/m^2
same,t½ Mean,"[2]; Day 1, 0.33 mg/m^2, N 1",2.01 h
same,CL Mean,"[2]; Day 1, 0.66 mg/m^2, N 1",18.5 L/hr/m^2
same,Cmax Mean,"[2]; Day 1, 0.66 mg/m^2, N 1",18.6 ng/mL
same,Tmax Median,"[2]; Day 1, 0.66 mg/m^2, N 1",2 h
same,Vd Mean,"[2]; Day 1, 0.66 mg/m^2, N 1",39.4 L/m^2
same,t½ Mean,"[2]; Day 1, 0.66 mg/m^2, N 1",1.48 h
same,Cmax Mean,"[2]; Day 1, 1.32 mg/m^2, N 1",63.8 ng/mL
same,Tmax Median,"[2]; Day 1, 1.32 mg/m^2, N 1",2 h
same,Cmax Mean,"[2]; Day 1, 2.59 mg/m^2, N 3 (n=1)",100^e ng/mL
same,Tmax Median,"[2]; Day 1, 2.59 mg/m^2, N 3 (n=1)",1^e hr
same,CL Mean,"[2]; Day 1, 2.59 mg/m^2, N 3 (n=2)",12.8^d L/hr/m^2
same,Vd Mean,"[2]; Day 1, 2.59 mg/m^2, N 3 (n=2)",61.4^d L/m^2
same,t½ Mean,"[2]; Day 1, 2.59 mg/m^2, N 3 (n=2)",3.28^d hr
same,CL Mean,"[2]; Day 1, 3.63 mg/m^2, N 7 (n=6)",11.2^h L/hr/m^2
same,Cmax Mean,"[2]; Day 1, 3.63 mg/m^2, N 7 (n=6)",210^i ng/mL
same,Tmax Median,"[2]; Day 1, 3.63 mg/m^2, N 7 (n=6)",1^i hr
same,Vd Mean,"[2]; Day 1, 3.63 mg/m^2, N 7 (n=6)",40.2^h L/m^2
same,t½ Mean,"[2]; Day 1, 3.63 mg/m^2, N 7 (n=6)",2.9^h hr
same,CL Mean,"[2]; Day 1, 5.08 mg/m^2, N 3",15.9 L/hr/m^2
same,Vd Mean,"[2]; Day 1, 5.08 mg/m^2, N 3",72.7 L/m^2
same,CL Mean,"[2]; Day 1, 7.11 mg/m^2, N 7",14.1 L/hr/m^2
same,Vd Mean,"[2]; Day 1, 7.11 mg/m^2, N 7",61.7 L/m^2
same,CL Mean,"[2]; Day 1, 10 mg/m^2, N 3",16.1 L/hr/m^2
same,Vd Mean,"[2]; Day 1, 10 mg/m^2, N 3",68.5 L/m^2
same,CL Mean,"[2]; Day 1, 12 mg/m^2, N 11",12.1 L/hr/m^2
same,Vd Mean,"[2]; Day 1, 12 mg/m^2, N 11",55.4 L/m^2
same,CL Mean,"[2]; Day 1, 14 mg/m^2, N 5",9.24 L/hr/m^2
same,Vd Mean,"[2]; Day 1, 14 mg/m^2, N 5",39.8 L/m^2
same,CL Mean,"[2]; Day 15, 0.33 mg/m^2, N 1",7.67 L/hr/m^2
same,Vd Mean,"[2]; Day 15, 0.33 mg/m^2, N 1",51 L/m^2
same,t½ Mean,"[2]; Day 15, 0.33 mg/m^2, N 1",4.61 h
same,CL Mean,"[2]; Day 15, 0.66 mg/m^2, N 1",23.9 L/hr/m^2
same,Vd Mean,"[2]; Day 15, 0.66 mg/m^2, N 1",57.6 L/m^2
same,CL Mean,"[2]; Day 15, 1.32 mg/m^2, N 1",9.83 L/hr/m^2
same,Vd Mean,"[2]; Day 15, 1.32 mg/m^2, N 1",48 L/m^2
same,CL Mean,"[2]; Day 15, 2.59 mg/m^2, N 3 (n=2)",15.6^m L/hr/m^2
same,Vd Mean,"[2]; Day 15, 2.59 mg/m^2, N 3 (n=2)",80.7^m L/m^2
same,CL Mean,"[2]; Day 15, 3.63 mg/m^2, N 6 (n=3)",12.5° L/hr/m^2
same,Vd Mean,"[2]; Day 15, 3.63 mg/m^2, N 6 (n=3)",71.6° L/m^2
same,CL Mean,"[2]; Day 15, 5.08 mg/m^2, N 2",14.6 L/hr/m^2
same,Cmax Mean,"[2]; Day 15, 5.08 mg/m^2, N 2",147 ng/mL
same,Tmax Median,"[2]; Day 15, 5.08 mg/m^2, N 2",2 h
same,Vd Mean,"[2]; Day 15, 5.08 mg/m^2, N 2",66.2 L/m^2
same,t½ Mean,"[2]; Day 15, 5.08 mg/m^2, N 2",3.17 h
same,Cmax Mean,"[2]; Day 15, 7.11 mg/m^2, N 7",306 ng/mL
same,Tmax Median,"[2]; Day 15, 7.11 mg/m^2, N 7",1 h
same,CL Mean,"[2]; Day 15, 7.11 mg/m^2, N 7 (n=6)",12.4^q L/hr/m^2
same,Vd Mean,"[2]; Day 15, 7.11 mg/m^2, N 7 (n=6)",49.9^q L/m^2
same,t½ Mean,"[2]; Day 15, 7.11 mg/m^2, N 7 (n=6)",2.71^q hr
same,CL Mean,"[2]; Day 15, 10 mg/m^2, N 3",15.2 L/hr/m^2
same,Cmax Mean,"[2]; Day 15, 10 mg/m^2, N 3",321 ng/mL
same,Tmax Median,"[2]; Day 15, 10 mg/m^2, N 3",2 h
same,Vd Mean,"[2]; Day 15, 10 mg/m^2, N 3",90.6 L/m^2
same,t½ Mean,"[2]; Day 15, 10 mg/m^2, N 3",4.14 h
same,CL Mean,"[2]; Day 15, 12 mg/m^2, N 10",11.5 L/hr/m^2
same,Cmax Mean,"[2]; Day 15, 12 mg/m^2, N 10",526 ng/mL
same,Tmax Median,"[2]; Day 15, 12 mg/m^2, N 10",2 h
same,Vd Mean,"[2]; Day 15, 12 mg/m^2, N 10",49.3 L/m^2
same,t½ Mean,"[2]; Day 15, 12 mg/m^2, N 10",3.16 h
same,CL Mean,"[2]; Day 15, 14 mg/m^2, N 4",13.9 L/hr/m^2
same,Cmax Mean,"[2]; Day 15, 14 mg/m^2, N 4",568 ng/mL
same,Tmax Median,"[2]; Day 15, 14 mg/m^2, N 4",2 h
same,Vd Mean,"[2]; Day 15, 14 mg/m^2, N 4",70.2 L/m^2
same,t½ Mean,"[2]; Day 15, 14 mg/m^2, N 4",3.43 h
same,accumulation in plasma,"[2]; days 1, 8, 15 of cycle 1 and day 1 of cycle 2",does not accumulate in plasma
same,AUC(0-inf),"[2]; Day 1, 0.33 mg/m^2, N 1",26.7 ng·h/mL
same,AUC(0-inf),"[2]; Day 1, 0.66 mg/m^2, N 1",35.7 ng·h/mL
same,AUC(0-inf),"[2]; Day 1, 2.59 mg/m^2, N 3 (n=2)",214 ng·h/mL
same,AUC(0-inf),"[2]; Day 1, 3.63 mg/m^2, N 7 (n=6)",458 ng·h/mL
same,AUC(0-inf),"[2]; Day 15, 5.08 mg/m^2, N 2",354 ng·h/mL
same,AUC(0-inf),"[2]; Day 15, 7.11 mg/m^2, N 7 (n=6)",686 ng·h/mL
same,AUC(0-inf),"[2]; Day 15, 10 mg/m^2, N 3",722 ng·h/mL
same,AUC(0-inf),"[2]; Day 15, 12 mg/m^2, N 10",1270 ng·h/mL
same,AUC(0-inf),"[2]; Day 15, 14 mg/m^2, N 4",1180 ng·h/mL
same,AUC(0-t),"[2]; Day 1, 0.33 mg/m^2, N 1",26.1 ng·h/mL
same,AUC(0-t),"[2]; Day 1, 0.66 mg/m^2, N 1",35.3 ng·h/mL
same,AUC(0-t),"[2]; Day 1, 1.32 mg/m^2, N 1",112 ng·h/mL
same,AUC(0-t),"[2]; Day 1, 2.59 mg/m^2, N 3",809 ng·h/mL
same,AUC(0-t),"[2]; Day 1, 3.63 mg/m^2, N 7",465 ng·h/mL
same,AUC(0-t),"[2]; Day 1, 10 mg/m^2, N 3",681 ng·h/mL
same,AUC(0-t),"[2]; Day 15, 0.66 mg/m^2, N 1",27.2 ng·h/mL
same,AUC(0-t),"[2]; Day 15, 2.59 mg/m^2, N 3",739 ng·h/mL
same,AUC(0-t),"[2]; Day 15, 3.63 mg/m^2, N 6",401 ng·h/mL
same,AUC(0-t),"[2]; Day 15, 7.11 mg/m^2, N 7",710 ng·h/mL
same,AUC(0-t),"[2]; Day 15, 10 mg/m^2, N 3",704 ng·h/mL
same,AUC(0-t),"[2]; Day 15, 12 mg/m^2, N 10",1270 ng·h/mL
same,Number of cycles,"solid tumors; Subject 2902, NSCLC, 0.66 mg/m^2, stable disease",6
same,Number of cycles,"solid tumors; Subject 2910, Pseudomyxoma peritonei, 2.59 mg/m^2, stable disease",9
same,Number of cycles,"solid tumors; Subject 2913, Prostate cancer, 3.63 mg/m^2, stable disease",4
same,Number of cycles,"solid tumors; Subject 2920, Melanoma, 3.63 mg/m^2, stable disease",10
same,Number of cycles,"solid tumors; Subject 2926, Sarcoma, 7.11 mg/m^2, stable disease",12
same,Number of cycles,"solid tumors; Subject 2928, Gastrointestinal stromal tumor, 7.11 mg/m^2, stable disease",10
same,Number of cycles,"solid tumors; Subject 2931, Esophageal carcinoma, 7.11 mg/m^2, stable disease",11
same,Number of cycles,"solid tumors; Subject 2932, Adenoid cyst carcinoma, 7.11 mg/m^2, stable disease",5
same,Number of cycles,"solid tumors; Subject 2937, Adenoid cyst carcinoma, 14.0 mg/m^2, stable disease",8
same,Number of cycles,"solid tumors; Subject 2945, NSCLC, 12.0 mg/m^2, stable disease",4
same,subjects with prolonged SD for at least 4 cycles of treatment,solid tumors; all dose levels,at least 10 subjects
same,complete or partial responses (RECIST),"solid tumors; subjects with solid tumors, all dose levels",no observed complete or partial responses
